{"source": "paper PMC2831140", "about": "(Biochemistry, 2010)", "target": "T1, TbQSOX (Trypanosoma brucei, UniProt Q585M6)", "T1 sequence (Q585M6 20-485)": "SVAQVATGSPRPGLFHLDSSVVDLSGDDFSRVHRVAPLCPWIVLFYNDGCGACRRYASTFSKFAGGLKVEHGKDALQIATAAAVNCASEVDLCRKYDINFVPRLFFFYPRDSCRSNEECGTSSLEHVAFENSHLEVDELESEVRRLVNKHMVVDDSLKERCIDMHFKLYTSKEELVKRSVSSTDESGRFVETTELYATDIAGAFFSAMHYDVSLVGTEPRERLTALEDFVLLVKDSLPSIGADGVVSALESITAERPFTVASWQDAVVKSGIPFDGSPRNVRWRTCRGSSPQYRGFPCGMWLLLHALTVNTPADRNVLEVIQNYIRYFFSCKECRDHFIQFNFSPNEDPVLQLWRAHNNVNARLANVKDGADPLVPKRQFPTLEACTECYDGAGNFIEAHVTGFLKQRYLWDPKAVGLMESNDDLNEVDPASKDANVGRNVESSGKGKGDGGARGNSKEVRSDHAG", "assay": "UV/Vis spectrum of bound flavin in purified protein", "format": "binding", "conditions": "50 mM phosphate pH 7.5, 1 mM EDTA; prosthetic group in Erv/ALR domain"}
{"smiles": "Cc1cc2nc3c(=O)[nH]c(=O)nc-3n(C[C@H](O)[C@H](O)[C@H](O)COP(=O)(O)OP(=O)(O)OC[C@H]3O[C@@H](n4cnc5c(N)ncnc54)[C@H](O)[C@@H]3O)c2cc1C", "note": "[FAD]", "values": [{"measurement": "UV/Vis spectrum of bound flavin in purified protein", "value": "found to be a stable, monomeric, FAD-containing protein"}]}
